The subject of the assay is CEM cells HIV-1 protection, formazan growth assay. The assay can be described thus: NCI AIDS Antiviral Assay. As to conditions: for IC50: measured here: growth of uninfected CEM cells. An outline of the steps: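 Five concentrations of each compound were applied to infected and uninfected human CEM cells. Protection from HIV-1 was judged from growth measured with a soluble formazan assay.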

Our source for the EC50, IC50 and outcome values is PubChem BioAssay AID179 (DTP/NCI, 2004).

Several values for one entry are separate records, joined by “and”; a condition that tells them apart may be missing. Equal values may be shown once. Activity calls are given as the source filed them.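 Rule for the calls: active = compounds giving half or more protection of infected cells from virus-caused growth loss, again on retest; inactive = the rest.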

As to `Cc1ccccc1N=Nc1ccc(N/N=C2/CCCNC2=O)c(C)c1`, the EC50 is > 200 µM and the IC50 worked out at 182 µM.
In the case of `NCCCN=c1ccc2c3c1c(O)c1c(O)ccc(=O)c1c3[nH]n2CCNCCO`, the EC50 is > 525 µM and the IC50 amounted to 1.07 µM.
For `CC1CN=C(N(C(=O)Nc2ccccc2)c2ccccc2)S1` (stereo unspecified) the same measures were > 200 µM and > 200 µM.
`C=CCOC(=O)C1CC2OC2CC1C(=O)OCC=C` (stereo unspecified): the EC50 was > 200 µM and the IC50 was > 200 µM.
For `CCCCCCCCCC1CC(=O)OC23CCCC(=O)C12O3` (stereo unspecified), the EC50 is > 32.4 µM and the half-inhibitory concentration (IC50) was > 32.4 µM.
Take `Cc1ccc(-n2cc(-c3ccc(Cl)cc3)c3c(=N)n(N)cnc32)cc1`: the EC50 is > 100 µM and the IC50 is 13.5 µM.
For `C=C(C)COc1ccc(C2OCC(CC)C(CCC)O2)cc1` (stereo unspecified) the same measures were > 200 µM and 89.1 µM.
`CN(C)CCCSCCOc1nccc(-c2ccc(-c3ccc(-c4ccnc(OCCSCCCN(C)C)n4)s3)s2)n1` returned an EC50 of 1.1 µM and an IC50 of 2.75 µM.
For `COc1ccc(C2C(Cl)C(=O)N2NC(=O)Cc2ccccc2)cc1OC` (stereo unspecified) the same measures were > 95.5 µM and > 95.5 µM.
For the molecule `CCCCCC/C=C\CCCCCCCCCC1=CC(=O)C=C(OC)C1=O`, the EC50 is > 9.55 µM and the IC50 was > 9.55 µM.
In the case of `NC(=O)c1ccc(NC(=O)c2ccccc2SC(=O)CCCC[n+]2ccccc2)cc1`, the EC50 was 7.41 µM and the IC50 stood at 15.8 µM.
For `Cc1ccc(S(=O)(=O)NC(=S)S)cc1`, the EC50 was > 200 µM and the IC50 is > 200 µM.
Turning to `c1ccc2c(c1)[nH]c1c2nc2sccn21`, the EC50 is > 234 µM; the IC50 is > 145 µM and 214 µM.
Consider `COC(=O)c1nn(C(=N)c2ccc(Cl)cc2)c2c1CCCCC2`, for which the EC50 was > 380 µM and the IC50 was > 380 µM.
As to `Cn1c(=O)c2nc3c4ccccc4c(=O)n(C)c3nc2n(C)c1=O`, the result was inactive.
In the case of `Cc1nn(C(=O)CC(=O)Nc2ccc(Cl)cc2)c(C)c1N=Nc1ccccc1C(=O)O`, the EC50 is > 42.7 µM and the IC50 was > 42.7 µM.
As to `Cc1ccc(NC(=O)CC/C(CC(=O)c2ccc(Cl)cc2)=N\NC(=O)C(=O)NN)cc1C`, the EC50 was > 8.32 µM and the IC50 was > 8.32 µM.
Consider `O=c1[nH]nc(Cc2ccc(Cl)cc2)n1/N=C\CC/C=N\n1c(Cc2ccc(Cl)cc2)n[nH]c1=O`, for which the EC50 was > 200 µM and the IC50 came out at 148 µM.
As to `Cc1ccc(C2CC(c3ccc([N+](=O)[O-])cc3)=Nc3ccccc3S2)cc1` (stereo unspecified), the EC50 was > 13.8 µM and the IC50 came to 7.76 µM.
For `CCOC(=O)c1cn2ccccc2c(C(C)=O)c1=N` the same measures were > 200 µM and 166 µM.
Consider `C[C@@H](NC(=O)[C@@H]1C[C@]1(C)CO)c1cccc2ccccc12`, for which the EC50 is > 200 µM and the IC50 is > 200 µM.
In the case of `COc1cc(/C=C2/SC(c3ccccc3)N(c3cc(Cl)ccc3Cl)C2=O)cc(OC)c1OC` (stereo unspecified), the EC50 was > 200 µM and the IC50 stood at 70.8 µM.
As for `O=Cc1c2c(cc3c1CC1(C3)Cc3cc4c(c(C=O)c3C1)CCC4)CCC2`, the EC50 was > 200 µM and the IC50 is 34.7 µM.
As to `CN1C(c2ccccc2)N1C` (stereo unspecified), the EC50 is > 1700 µM and the IC50 is > 1700 µM.
As for `COc1cc(CNc2nc3ccccc3n2Cc2ccccc2)cc(CN2CCOCC2)c1O`, the EC50 was > 200 µM and the IC50 was 32.4 µM.
In the case of `Cc1[nH]c(=O)[nH]c(=O)c1CO`, the EC50 is > 200 µM and the IC50 came out at 105 µM.
For `CN(C)Cc1[nH]c(=O)[nH]c(=O)c1O` the same measures were > 200 µM and 23.4 µM.
For `CC12CC3CC(C1)CC(N=[N+]=[N-])(C3)C2` the same measures were > 70.8 µM and > 70.8 µM.
Consider `O=C(COc1ccc(Cl)cc1)N1N=C(c2ccc(Cl)cc2)CC1(O)c1ccccc1` (stereo unspecified), for which the EC50 was > 16.2 µM and the IC50 is > 16.2 µM.
For `O=C(CC1(O)C(=O)Nc2c(Cl)ccc(Cl)c21)c1ccc2ccccc2c1` (stereo unspecified), the EC50 was > 245 µM and the IC50 came out at 14.5 µM.
Regarding `NNC(=O)c1ccccc1NC(=O)/C(=C/c1ccccc1O)NC(=O)c1ccccc1`, the EC50 was > 200 µM and the IC50 is > 200 µM.
On to `CC(C)=CCN1CC(C)C(=O)Nc2cc(Cl)ccc21` (stereo unspecified), for which the EC50 was > 132 µM and the IC50 was 28.2 µM.
As for `CC(C)(C)N1NC1C1NN1C(C)(C)C` (stereo unspecified), the EC50 is > 200 µM and the IC50 was > 200 µM.
Turning to `N#Cc1nc(CSCc2ccccc2)oc1N`, the EC50 is > 200 µM and the IC50 turned out to be 117 µM.
Take `COc1cc2cc(C(=O)N3CC(CCl)c4c3cc(N(C)C)c3ccccc43)[nH]c2c(OC)c1OC` (stereo unspecified): the EC50 was > 0.2 µM and the IC50 amounted to 0.0129 µM.
On to `COc1cc(C2c3cc4c(cc3C(O)[C@H]3COC(=O)C23)OCO4)cc(OC)c1O` (stereo partly specified), for which the EC50 was > 200 µM and the concentration for half-maximal inhibition (IC50) came out at 0.0631 µM.
For the molecule `CCCC(O)c1cn(C(NC(=O)c2ccccc2)P(=O)(OCC)OCC)nn1` (stereo unspecified), the EC50 was > 200 µM and the IC50 is > 200 µM.
As to `COc1ccc2c(c1)C(=O)OCCC2`, the EC50 was > 200 µM and the concentration for half-maximal inhibition (IC50) is > 200 µM.
For the molecule `CN1C(=O)NC2(O)c3ccccc3C(=O)C12O` (stereo unspecified), the EC50 was > 1070 µM and the IC50 is > 1070 µM.
For `CCOC(=O)/C(=C\c1ccccc1Cl)P(=O)(OCC)OCC`, the EC50 was > 20.9 µM and the IC50 amounted to 11.7 µM.
As for `Cc1c(C)n(COCCO)c2ncnc(N)c12`, the EC50 was > 200 µM and the IC50 is > 200 µM.
In the case of `CCC(F)(C(N)=O)C(=O)O` (stereo unspecified), the EC50 is > 200 µM and the half-inhibitory concentration (IC50) was > 200 µM.
As for `COc1c(O)ccc2oc3cc(O)cc(O)c3c(=O)c12`, the EC50 was > 200 µM and the IC50 amounted to 145 µM.
For `CN(C)CCn1nc(N)c2nc3cc(C(F)(F)F)ccc3nc21` the same measures were > 100 µM and 63.1 µM.
On to `COCCOc1cc(C)cc(/C=C(C)/C=C/C2=C(C)CCCC2(C)C)n1`, for which the outcome was inactive.
`C/C=C/C(=O)Oc1cccc2cccnc12`: the EC50 is > 251 µM and the IC50 stood at 1.51 µM.
Turning to `C=CC(C)(C)C12CC3C(=O)N/C(=C\c4cnc[nH]4)C(=O)N3C1Nc1ccccc12` (stereo unspecified), the EC50 is > 200 µM and the IC50 was determined as 91.2 µM.
For `COc1cc2[nH]c(=O)[nH]c2c2c(C)c[nH]c12` the same measures were > 200 µM and > 200 µM.
In the case of `CCSCCCSCCSCC`, the EC50 was > 158 µM and the IC50 is > 158 µM.
On to `O=C(NC1C=Nc2ccc([N+](=O)[O-])cc2NC1=O)c1ccc(Cl)cc1` (stereo unspecified), for which the EC50 is > 200 µM and the IC50 is > 200 µM.
Regarding `CN(C)CCCNC(=O)c1cc(NC(=O)c2cc(NC(=O)[C@H]3C[C@@H]3C(=O)Nc3cc(C(=O)Nc4cc(C(=O)NCCCN(C)C)n(C)c4)n(C)c3)cn2C)cn1C`, the result was inactive.
In the case of `CCOC(=O)/C(C#N)=C/c1c[nH]c2ccccc12`, the EC50 is > 200 µM and the IC50 was 158 µM.
For `COc1cc(C2c3cc4c(cc3OC(N3CCCCC3)C2C)OCO4)cc(OC)c1O` (stereo unspecified) the same measures were > 200 µM and 7.59 µM.
`CSc1nnc2n(C)c3c(=O)n(C)c(=O)n(C)c3n12`: the EC50 is > 200 µM and the IC50 is > 200 µM.
Turning to `O=C(O)/C(Cl)=C(\Cl)C(=O)c1ccccc1`, the EC50 was > 1020 µM and the IC50 is > 1020 µM.
With `O=[N+]([O-])c1cccc(S(=O)(=O)OCn2ncc3ccc([N+](=O)[O-])cc32)c1`, the EC50 was > 200 µM and the IC50 came to 151 µM.
Turning to `COC(c1ccc(C(C)(C)C)cc1)(c1ccc(C(C)(C)C)cc1)c1cc(C(O)(c2cc(C(OC)(c3ccc(C(C)(C)C)cc3)c3ccc(C(C)(C)C)cc3)c(C)cc2C)c2cc(C(OC)(c3ccc(C(C)(C)C)cc3)c3ccc(C(C)(C)C)cc3)c(C)cc2C)c(C)cc1C`, the result was inactive.
`CCOS(=O)(=O)c1ccc(-c2c3nc(c(-c4ccc(S(=O)(=O)OCC)cc4)c4ccc([nH]4)c(-c4ccc(S(=O)(=O)OCC)cc4)c4nc(c(-c5ccc(S(=O)(=O)OCC)cc5)c5ccc2[nH]5)C=C4)C=C3)cc1`: the EC50 was > 100 µM and the IC50 is > 100 µM.
For the molecule `CNC(=S)NNC(=O)c1c(C)nc2sccn12`, the EC50 is > 933 µM and the IC50 was 575 µM.
In the case of `CN(C)c1ccc(/C=C/C(=O)/C=C/c2ccc(N(C)C)cc2)cc1`, the EC50 is > 4.27 µM and the IC50 is > 4.27 µM.
`O=S(=O)(O)SCC1=NCCN1`: the EC50 is > 200 µM and the IC50 is > 200 µM.
On to `CC(=O)/C(=C/c1ccc(C#N)cc1)C(=O)c1ccccc1`, for which the EC50 is > 95.5 µM and the IC50 turned out to be 16.6 µM.
As to `Cc1ccccc1/C=C1/N=C(c2ccccc2)OC1=O`, the EC50 was > 200 µM and the IC50 came out at 33.1 µM.
Regarding `COc1cc([C@@H]2c3cc4c(cc3C(N)C3COC(=O)[C@@H]32)OCO4)cc(OC)c1O` (stereo partly specified), the result was inactive.
In the case of `COc1ccc(C(O)/C(=N/N)c2nc3ccc(Cl)cc3[nH]c2=O)cc1` (stereo unspecified), the EC50 is > 263 µM and the IC50 worked out at 251 µM.
Regarding `Nc1nc2c(ncn2CC2OCC(CO)O2)c(=O)[nH]1` (stereo unspecified), the EC50 is > 2950 µM; the IC50 was 1820 µM and 275 µM.
On to `O=C1C(O)=C(c2ccccc2C(=O)O)C(=O)C(O)=C1c1ccccc1C(=O)O`, for which the EC50 is > 110 µM and the IC50 is > 110 µM.
`CC1=C(N2CC2)C(=O)c2nc3n(c2C1=O)CCC3O` (stereo unspecified): the outcome was inactive.
Turning to `COc1ccc2c(c1)CCc1cnc(=S)[nH]c1-2`, the EC50 was > 40.7 µM and the IC50 is > 40.7 µM.
On to `COC1/C=C/OC2(C)Oc3c(C)c(O)c4c(O)c(c(/C=N/NC5C6CC7CC(C6)CC5C7)c(O)c4c3C2=O)NC(=O)/C(C)=C/C=C/C(C)C(O)C(C)C(O)C(C)C(OC(C)=O)C1C` (stereo unspecified), for which the EC50 is > 200 µM and the IC50 came out at 9.12 µM.
For `O=C(Cc1nc2ccccc2s1)C(=O)Nc1ccccc1C(F)(F)F`, the EC50 is > 70.8 µM and the IC50 was > 70.8 µM.

One may read the EC50 as the concentration giving half of the maximal effect. For orientation: IC50 means the concentration that gives 50% inhibition.
